Laboratory results reported in US20160009693A1, “HERBICIDAL COMPOUNDS” (SYNGENTA LIMITED, priority 2013, published 2016).

Test system: Alopecurus myosuroides (ALOMY)
Assay: Herbicidal glasshouse test, pre-emergence, ALOMY
Type: in vivo
Conditions: applied at 1000 g/h, evaluated after 13 days

SMILES | PRE Application ALOMY, percentage damage (five point scale)
Cn1nnnc1NC(=O)c1nn(C)c(=O)n(Cc2ccccc2C#N)c1=O [Compound 1.083] | 5 (5=80-100%)
Cn1nnnc1NC(=O)c1nn(C)c(=O)n(Cc2cccc(Cl)c2)c1=O [Compound 1.084] | 5 (5=80-100%)

Test system: Setaria faberi (SETFA)
Assay: Herbicidal glasshouse test, pre-emergence, SETFA
Type: in vivo
Conditions: applied at 1000 g/h, evaluated after 13 days

SMILES | PRE Application SETFA, percentage damage (five point scale)
Cn1nnnc1NC(=O)c1nn(C)c(=O)n(Cc2ccccc2C#N)c1=O [Compound 1.083] | 5 (5=80-100%)
Cn1nnnc1NC(=O)c1nn(C)c(=O)n(Cc2cccc(Cl)c2)c1=O [Compound 1.084] | 2 (2=20-39%)

Test system: Echinochloa crus-galli (ECHCG)
Assay: Herbicidal glasshouse test, pre-emergence, ECHCG
Type: in vivo
Conditions: applied at 1000 g/h, evaluated after 13 days
Method in brief: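 In this pre-emergence glasshouse test, ECHCG seeds sown in pots of standard soil were sprayed one day after sowing with the test material in acetone/water (50:50) containing 0.5% Tween 20. Plants were kept at 24/16° C., 14 hours light, 65% humidity, and watered twice daily. Percentage damage was rated after 13 days on a 1–5 scale.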

SMILES | PRE Application ECHCG, percentage damage (five point scale)
Cn1nnnc1NC(=O)c1nn(C)c(=O)n(Cc2ccccc2C#N)c1=O [Compound 1.083] | 5 (5=80-100%)
Cn1nnnc1NC(=O)c1nn(C)c(=O)n(Cc2cccc(Cl)c2)c1=O [Compound 1.084] | 5 (5=80-100%)

Test system: Solanum nigrum (SOLNI)
Assay: Herbicidal glasshouse test, pre-emergence, SOLNI
Type: in vivo
Conditions: applied at 1000 g/h, evaluated after 13 days
Method in brief: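 This pre-emergence glasshouse herbicide test used Solanum nigrum sown in standard soil. One day after sowing, pots were sprayed with the compound in acetone/water (50:50) with 0.5% Tween 20. They were then grown at 24/16° C., with 14 hours light and 65% humidity, and watered twice daily. Percentage damage was scored after 13 days on a five point scale, where 5=80-100% and 1=0-19%.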

SMILES | PRE Application SOLNI, percentage damage (five point scale)
Cn1nnnc1NC(=O)c1nn(C)c(=O)n(Cc2ccccc2C#N)c1=O [Compound 1.083] | 5 (5=80-100%)
Cn1nnnc1NC(=O)c1nn(C)c(=O)n(Cc2cccc(Cl)c2)c1=O [Compound 1.084] | 5 (5=80-100%)

Test system: Amaranthus retoflexus (AMARE)
Assay: Herbicidal glasshouse test, pre-emergence, AMARE
Type: in vivo
Conditions: applied at 1000 g/h, evaluated after 13 days
Method in brief: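 This pre-emergence glasshouse herbicide test used Amaranthus retoflexus sown in standard soil. After one day of cultivation, an aqueous spray made from the technical ingredient in 50:50 acetone/water with 0.5% Tween 20 was applied. Pots stayed at 24/16° C., 14 hours light, 65% humidity, with twice-daily watering. Damage was rated on a five point scale (1=0-19% up to 5=80-100%).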

SMILES | PRE Application AMARE, percentage damage (five point scale)
Cn1nnnc1NC(=O)c1nn(C)c(=O)n(Cc2ccccc2C#N)c1=O [Compound 1.083] | 5 (5=80-100%)
Cn1nnnc1NC(=O)c1nn(C)c(=O)n(Cc2cccc(Cl)c2)c1=O [Compound 1.084] | 5 (5=80-100%)

Test system: Ipomoea hederacea (IPOHE)
Assay: Herbicidal glasshouse test, pre-emergence, IPOHE
Type: in vivo
Conditions: applied at 1000 g/h, evaluated after 13 days

SMILES | PRE Application IPOHE, percentage damage (five point scale)
Cn1nnnc1NC(=O)c1nn(C)c(=O)n(Cc2ccccc2C#N)c1=O [Compound 1.083] | 5 (5=80-100%)
Cn1nnnc1NC(=O)c1nn(C)c(=O)n(Cc2cccc(Cl)c2)c1=O [Compound 1.084] | 5 (5=80-100%)

Test system: Alopecurus myosuroides (ALOMY)
Assay: Herbicidal glasshouse test, post-emergence, ALOMY
Type: in vivo
Conditions: applied at 1000 g/h, evaluated after 13 days

SMILES | POST Application ALOMY, percentage damage (five point scale)
Cn1nnnc1NC(=O)c1nn(C)c(=O)n(Cc2ccccc2C#N)c1=O [Compound 1.083] | 5 (5=80-100%)
Cn1nnnc1NC(=O)c1nn(C)c(=O)n(Cc2cccc(Cl)c2)c1=O [Compound 1.084] | 5 (5=80-100%)

Test system: Setaria faberi (SETFA)
Assay: Herbicidal glasshouse test, post-emergence, SETFA
Type: in vivo
Conditions: applied at 1000 g/h, evaluated after 13 days
Method in brief: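 This post-emergence glasshouse herbicide test used potted Setaria faberi. Plants were cultivated for 8 days under controlled conditions (24/16° C. day/night, 14 hours light, 65% humidity) and then treated with an aqueous spray made from an acetone/water (50:50) solution containing 0.5% Tween 20. After 13 days of further growth with twice-daily watering, damage was rated on a five point scale (5=80-100%; 1=0-19%).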

SMILES | POST Application SETFA, percentage damage (five point scale)
Cn1nnnc1NC(=O)c1nn(C)c(=O)n(Cc2ccccc2C#N)c1=O [Compound 1.083] | 5 (5=80-100%)
Cn1nnnc1NC(=O)c1nn(C)c(=O)n(Cc2cccc(Cl)c2)c1=O [Compound 1.084] | 2 (2=20-39%)

Test system: Echinochloa crus-galli (ECHCG)
Assay: Herbicidal glasshouse test, post-emergence, ECHCG
Type: in vivo
Conditions: applied at 1000 g/h, evaluated after 13 days
Method in brief: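 In this post-emergence glasshouse test, barnyard grass (ECHCG) was cultivated for 8 days under controlled conditions (24/16° C. day/night, 14 hours light, 65% humidity). It was then sprayed with an aqueous solution of the technical compound in acetone / water (50:50) with 0.5% Tween 20. Plants were kept under the same conditions and watered twice daily. After 13 days, percentage damage was rated on a five point scale (5=80-100%; 1=0-19%).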

SMILES | POST Application ECHCG, percentage damage (five point scale)
Cn1nnnc1NC(=O)c1nn(C)c(=O)n(Cc2ccccc2C#N)c1=O [Compound 1.083] | 5 (5=80-100%)
Cn1nnnc1NC(=O)c1nn(C)c(=O)n(Cc2cccc(Cl)c2)c1=O [Compound 1.084] | 5 (5=80-100%)

Test system: Solanum nigrum (SOLNI)
Assay: Herbicidal glasshouse test, post-emergence, SOLNI
Type: in vivo
Conditions: applied at 1000 g/h, evaluated after 13 days

SMILES | POST Application SOLNI, percentage damage (five point scale)
Cn1nnnc1NC(=O)c1nn(C)c(=O)n(Cc2ccccc2C#N)c1=O [Compound 1.083] | 5 (5=80-100%)
Cn1nnnc1NC(=O)c1nn(C)c(=O)n(Cc2cccc(Cl)c2)c1=O [Compound 1.084] | 5 (5=80-100%)

Test system: Amaranthus retoflexus (AMARE)
Assay: Herbicidal glasshouse test, post-emergence, AMARE
Type: in vivo
Conditions: applied at 1000 g/h, evaluated after 13 days
Method in brief: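 This post-emergence glasshouse test used AMARE plants raised in standard soil for 8 days under controlled conditions (24/16° C. day/night, 14 hours light, 65% humidity). Foliage was sprayed with formulated compound in acetone/water (50:50) containing 0.5% Tween 20. Plants were then watered twice daily, and after 13 days percentage damage was rated on a five point scale.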

SMILES | POST Application AMARE, percentage damage (five point scale)
Cn1nnnc1NC(=O)c1nn(C)c(=O)n(Cc2ccccc2C#N)c1=O [Compound 1.083] | 5 (5=80-100%)
Cn1nnnc1NC(=O)c1nn(C)c(=O)n(Cc2cccc(Cl)c2)c1=O [Compound 1.084] | 5 (5=80-100%)

Test system: Ipomoea hederacea (IPOHE)
Assay: Herbicidal glasshouse test, post-emergence, IPOHE
Type: in vivo
Conditions: applied at 1000 g/h, evaluated after 13 days

SMILES | POST Application IPOHE, percentage damage (five point scale)
Cn1nnnc1NC(=O)c1nn(C)c(=O)n(Cc2ccccc2C#N)c1=O [Compound 1.083] | 5 (5=80-100%)
Cn1nnnc1NC(=O)c1nn(C)c(=O)n(Cc2cccc(Cl)c2)c1=O [Compound 1.084] | 5 (5=80-100%)
